The target of one experiment is JAK1 (Homo sapiens (Human), UniProt P23458). Description: JAK1 enzyme activity assay (Thermo Fisher SelectScreen, Z-lyte). In kind it is biochemical. Particulars: read-out: JAK1 Inhibition IC50. Here is the method:
(§1) JAK1, JAK2, JAK3, and Tyk-2 Enzyme Activity Assays
(§2) The inhibitory potency of candidate compounds of JAK1, JAK2, and Tyk-2 was done at Thermo Fisher Scientific in their Selectscreen using a Z-lyte assay. Following are the assay details for each enzyme.
JAK: The 2×JAK-enzyme/Tyr 06 mixture is prepared in 50 mM HEPES pH 6.5, 0.01% BRIJ-35, 10 mM MgCl2, 1 mM EGTA, 0.02% NaN3. The final 10 μL of the Kinase Reaction consists of 21.2-91.5 ng JAK and 2 M Tyr 06 in 50 mM HEPES pH 7.0, 0.01% BRIJ-35, 10 mM MgCl2, 1 mM EGTA, 0.01% NaN3. After the one hour Kinase Reaction incubation, 5 μL of a 1:128 dilution of Development Reagent is added.
(§3) Data reduction for JAK1, JAK2 and TYK2 is done the same, independent of the enzyme run. In summary, background signal is defined in the absence of enzyme and uninhibited signal is defined in the presence of vehicle (2% DMSO) alone. Compounds were evaluated in an 11 point dose-response ranging from […] to 0.34 nM. IC50 values of compounds are determined using a 4 parameter logistical fit of emission ratio as a function of the concentration of compound.

A further experiment has as its target JAK2 (Homo sapiens (Human), UniProt O60674). Description: JAK2 enzyme activity assay (Thermo Fisher SelectScreen, Z-lyte). Format: biochemical. The note with it: read-out: JAK2 Inhibition IC50. The procedure: as §1, §2
JAK2: The 2×JAK2/Tyr 06 mixture is prepared in 50 mM HEPES pH 7.5, 0.01% BRIJ-35, 10 mM MgCl2, 1 mM EGTA. The final 10 μL Kinase Reaction consists of 0.12-0.5 ng JAK2 and 2 M Tyr 06 in 50 mM HEPES pH 7.5, 0.01% BRIJ-35, 10 mM MgCl2, 1 mM EGTA. After the one hour Kinase Reaction incubation, 5 μL of a 1:128 dilution of Development Reagent A is added.
as §3

The target of the next experiment is JAK3 (a.a. 781-1124) (Homo sapiens (Human), UniProt P52333). Briefly: JAK3 enzyme activity assay (SRCtide phosphorylation, Caliper). In kind it is biochemical. Particulars: 1 uM ATP; read-out: JAK3 Inhibition IC50. The procedure: as §1
Kinase reactions were run in a 384-well Greiner plate with 2% final DMSO concentration under the buffer conditions of 20 mM HEPES, pH 7.5, 10 mM MgCl2, 0.01% BSA, and 0.0005% Tween-20. The kinase reaction components were 2.5 nM JAK3, 1 μM SRCtide peptide and 1 uM ATP. Examples were tested in dose-response starting at 2 M (11 concentrations, 3-fold serial dilution, duplicate reactions). The reactions were incubated at room temperature for 40 minutes, then stopped by adding a 1:1 volume of 30 mM EDTA in 20 mM HEPES, pH 7.5 (15 mM EDTA final). After the reaction was stopped, the phosphorylated and unphosphorylated peptides were separated and quantified using a Caliper LC3000/EZ-Reader system and HTS Well Analyzer Software (Caliper, A PerkinElmer Company, Hopkinton, Mass.). GraFit (Erithacus Software Ltd., Horley, U.K.) was used to calculate inhibitor potency by fitting dose-response data to the 4-parameter logistical IC50 equation.

A further experiment deals with Tyk-2 (Homo sapiens (Human), UniProt P29597). Briefly: Tyk-2 enzyme activity assay (Thermo Fisher SelectScreen, Z-lyte). In kind it is biochemical. The note with it: read-out: Tyk-2 Inhibition IC50. Here is the method:
as §1, §2
TYK2: The 2×TYK2/Tyr 03 mixture is prepared in 50 mM HEPES pH 6.5, 0.01% BRIJ-35, 10 mM MgCl2, 1 mM EGTA, 0.02% NaN3. The final 10 μL Kinase Reaction consists of 3.75-15 ng TYK2 and 2 M Tyr 03 in 50 mM HEPES pH 7.0, 0.01% BRIJ-35, 10 mM MgCl2, 1 mM EGTA, 0.01% NaN3. After the one hour KinaseReaction incubation, 5 μL of a 1:4096 dilution of Development Reagent A is added.
as §3

The subject of experiment [1] is IL-2 stimulated STAT5 phosphorylation on Tyr694 (JAK1/3). Briefly: JAK1/3 cellular target modulation: IL-2 stimulated phospho-STAT5 in PBMC. In kind it is cell-based. The note with it: human PBMC, IL-2 25 ng/ml; read-out: IL2-STAT5 IC50. An excerpt:
JAK Cellular Target Modulation Assays
Target modulation was based upon the ability of a compound to inhibit JAK isoform specific phosphorylation of selected substrates. IL-2 stimulated STAT5 phosphorylation on Tyr694 was used to assess JAK1/3 compound selectivity. GM-CSF stimulated STAT5 phosphorylation on Tyr694 was used to assess JAK2 compound selectivity. IFNγ stimulated STAT1 phosphorylation on Tyr701 was used to assess JAK1/2 compound selectivity. IL-12 stimulated STAT4 phosphorylation on Tyr693 was used to assess JAK2/TYK2 compound selectivity. For all four assays, human PBMC from frozen stocks were thawed, pelleted, resuspended in complete media (90% RPMI, 10% heat inactivated FBS, 10 mM HEPES, 47 μM 2-ME, pen/strep) and placed in wells of a 96 well V-bottom plate at 200,000 per well in 120 μl complete media. Compounds were added as 15 μl per well of 10× working stock solutions in complete media with 1% DMSO (or medium with 1% DMSO for controls) and placed on a plate shaker in a 37° C. incubator with 5% CO2 for 1 hour with gentle shaking (setting of 3). Stimulation used the addition of soluble cytokines. For the JAK1/3 phospho-STAT5 assay, 15 μl of 10× working stock recombinant human IL-2 was added to a final concentration of 25 ng/ml. For the JAK2 phospho-STAT5 assay, 15 μl of 10× working stock recombinant human GM-CSF was added to a final concentration of 5 ng/ml. For the JAK1/2 phospho-STAT1 assay, 15 μl of 10× working stock of recombinant human IFNγ was added to a final concentration of 10 ng/ml. For the JAK2/TYK2 phospho-STAT4 assay, 15 μl of 10× working stock of recombinant human IL-12 was added to a final concentration of 1.7 ng/ml. Plates were then placed back on the plate shaker in the incubator for an additional 5, 5, 10, and 25 minutes respectively upon which the plates were removed from the incubator, sealed with a plate sealer and the cells pelleted at 400×g for 5 minutes. After pelleting, the media was removed by aspiration and the cells were lysed in assay specific cell lysis buffer. The levels of phospho-STATS were determined using a Phospho (Tyr694) STAT5a,b Whole Cell Lysate kit from Meso Scale Discovery. Levels of phospho-STAT1 were determined using a CST-PathScan Phospho-STAT1 (Tyr701) Sandwich ELISA kit. Levels of phospho-STAT4 were determined using a Phospho-STAT4 (Tyr693) Whole Cell Lysate kit from Meso Scale Discovery.

JAK1, sequence (P23458 whole entry): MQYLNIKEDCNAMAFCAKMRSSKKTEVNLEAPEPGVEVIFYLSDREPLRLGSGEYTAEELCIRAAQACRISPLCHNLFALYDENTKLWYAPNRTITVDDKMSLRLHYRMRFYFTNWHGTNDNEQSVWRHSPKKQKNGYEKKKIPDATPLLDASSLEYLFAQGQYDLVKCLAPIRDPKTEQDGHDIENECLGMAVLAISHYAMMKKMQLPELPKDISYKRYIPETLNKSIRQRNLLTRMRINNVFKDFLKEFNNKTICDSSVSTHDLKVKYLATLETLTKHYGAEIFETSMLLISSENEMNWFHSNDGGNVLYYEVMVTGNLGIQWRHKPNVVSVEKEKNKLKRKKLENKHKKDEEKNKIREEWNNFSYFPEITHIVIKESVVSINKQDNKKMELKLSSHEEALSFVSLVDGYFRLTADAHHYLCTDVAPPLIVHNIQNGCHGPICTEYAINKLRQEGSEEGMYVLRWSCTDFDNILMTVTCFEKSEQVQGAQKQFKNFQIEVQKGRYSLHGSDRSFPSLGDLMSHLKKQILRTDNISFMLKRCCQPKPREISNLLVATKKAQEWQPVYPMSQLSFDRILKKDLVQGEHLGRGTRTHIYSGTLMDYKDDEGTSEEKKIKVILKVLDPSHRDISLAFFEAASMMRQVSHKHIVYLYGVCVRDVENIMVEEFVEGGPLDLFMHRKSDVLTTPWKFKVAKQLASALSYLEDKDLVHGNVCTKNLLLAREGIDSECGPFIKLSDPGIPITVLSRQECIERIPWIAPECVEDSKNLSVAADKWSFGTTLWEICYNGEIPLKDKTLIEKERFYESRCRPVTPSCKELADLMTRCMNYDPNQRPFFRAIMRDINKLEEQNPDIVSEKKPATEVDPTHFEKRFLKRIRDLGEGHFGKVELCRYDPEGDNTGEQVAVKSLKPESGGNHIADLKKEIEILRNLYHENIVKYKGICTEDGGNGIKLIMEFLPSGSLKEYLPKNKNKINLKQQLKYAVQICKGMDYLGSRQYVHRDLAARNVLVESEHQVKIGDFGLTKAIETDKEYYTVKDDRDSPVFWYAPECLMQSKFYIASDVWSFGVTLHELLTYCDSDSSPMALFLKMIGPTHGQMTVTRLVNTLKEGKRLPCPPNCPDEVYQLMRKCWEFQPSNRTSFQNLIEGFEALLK
JAK2, sequence (O60674 whole entry): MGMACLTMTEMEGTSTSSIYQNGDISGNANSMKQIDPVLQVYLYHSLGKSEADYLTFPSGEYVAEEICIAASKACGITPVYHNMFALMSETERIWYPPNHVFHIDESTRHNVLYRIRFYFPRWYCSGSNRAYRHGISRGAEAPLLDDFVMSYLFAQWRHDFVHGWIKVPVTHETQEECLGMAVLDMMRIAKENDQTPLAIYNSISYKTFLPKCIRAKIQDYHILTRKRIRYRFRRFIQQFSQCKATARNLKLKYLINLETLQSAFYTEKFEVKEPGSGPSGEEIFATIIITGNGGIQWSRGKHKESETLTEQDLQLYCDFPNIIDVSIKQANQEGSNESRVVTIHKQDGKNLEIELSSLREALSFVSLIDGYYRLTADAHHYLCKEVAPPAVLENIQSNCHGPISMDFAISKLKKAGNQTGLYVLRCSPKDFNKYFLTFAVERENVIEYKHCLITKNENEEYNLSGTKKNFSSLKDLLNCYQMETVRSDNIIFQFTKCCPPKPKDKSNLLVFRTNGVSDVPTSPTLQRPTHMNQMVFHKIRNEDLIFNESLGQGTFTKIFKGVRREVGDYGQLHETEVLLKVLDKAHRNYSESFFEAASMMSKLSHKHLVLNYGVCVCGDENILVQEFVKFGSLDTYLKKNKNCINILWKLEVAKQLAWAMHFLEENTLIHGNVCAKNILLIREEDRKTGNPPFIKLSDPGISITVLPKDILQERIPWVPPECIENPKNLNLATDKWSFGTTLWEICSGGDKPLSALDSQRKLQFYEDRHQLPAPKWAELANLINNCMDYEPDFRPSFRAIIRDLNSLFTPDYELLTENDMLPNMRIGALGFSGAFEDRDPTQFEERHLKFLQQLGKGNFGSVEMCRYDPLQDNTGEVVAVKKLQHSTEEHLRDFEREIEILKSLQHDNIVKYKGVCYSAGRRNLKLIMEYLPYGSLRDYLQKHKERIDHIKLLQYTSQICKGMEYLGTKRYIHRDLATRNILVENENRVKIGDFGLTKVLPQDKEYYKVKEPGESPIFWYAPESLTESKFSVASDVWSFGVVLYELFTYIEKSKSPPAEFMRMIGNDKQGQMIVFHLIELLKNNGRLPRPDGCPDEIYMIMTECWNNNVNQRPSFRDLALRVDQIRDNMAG
Tyk-2, sequence (P29597 whole entry): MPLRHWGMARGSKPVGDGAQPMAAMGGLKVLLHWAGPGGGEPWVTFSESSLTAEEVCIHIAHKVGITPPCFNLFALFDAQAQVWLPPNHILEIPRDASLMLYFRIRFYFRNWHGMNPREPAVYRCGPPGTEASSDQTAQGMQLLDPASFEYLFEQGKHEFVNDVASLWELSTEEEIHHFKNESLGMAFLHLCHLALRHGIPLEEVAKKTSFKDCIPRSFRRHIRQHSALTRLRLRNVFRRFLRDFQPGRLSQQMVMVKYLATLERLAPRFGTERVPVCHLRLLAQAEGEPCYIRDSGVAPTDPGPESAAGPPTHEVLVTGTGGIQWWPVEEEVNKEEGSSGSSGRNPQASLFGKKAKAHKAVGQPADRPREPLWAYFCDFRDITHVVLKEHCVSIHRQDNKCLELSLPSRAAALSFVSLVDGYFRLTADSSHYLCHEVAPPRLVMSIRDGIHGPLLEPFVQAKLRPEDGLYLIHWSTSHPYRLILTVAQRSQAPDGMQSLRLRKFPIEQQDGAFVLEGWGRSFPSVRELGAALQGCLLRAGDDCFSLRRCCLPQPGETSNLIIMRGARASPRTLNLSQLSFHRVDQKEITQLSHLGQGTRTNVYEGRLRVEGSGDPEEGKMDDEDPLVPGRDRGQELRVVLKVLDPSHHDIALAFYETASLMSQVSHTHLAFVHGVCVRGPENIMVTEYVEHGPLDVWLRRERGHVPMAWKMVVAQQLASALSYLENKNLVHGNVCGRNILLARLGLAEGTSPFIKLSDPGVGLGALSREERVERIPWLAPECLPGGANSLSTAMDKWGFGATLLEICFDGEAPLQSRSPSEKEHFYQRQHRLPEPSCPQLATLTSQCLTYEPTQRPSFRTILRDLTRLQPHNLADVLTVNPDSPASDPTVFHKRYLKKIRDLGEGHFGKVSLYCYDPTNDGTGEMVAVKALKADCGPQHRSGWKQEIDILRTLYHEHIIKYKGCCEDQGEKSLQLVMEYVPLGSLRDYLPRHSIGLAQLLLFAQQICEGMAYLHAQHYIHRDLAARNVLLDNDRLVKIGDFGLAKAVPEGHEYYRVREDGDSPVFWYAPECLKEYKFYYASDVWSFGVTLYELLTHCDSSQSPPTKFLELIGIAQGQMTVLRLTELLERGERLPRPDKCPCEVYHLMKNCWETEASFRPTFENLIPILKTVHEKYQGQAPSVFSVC
JAK3 (a.a. 781-1124), sequence (P52333 781-1124): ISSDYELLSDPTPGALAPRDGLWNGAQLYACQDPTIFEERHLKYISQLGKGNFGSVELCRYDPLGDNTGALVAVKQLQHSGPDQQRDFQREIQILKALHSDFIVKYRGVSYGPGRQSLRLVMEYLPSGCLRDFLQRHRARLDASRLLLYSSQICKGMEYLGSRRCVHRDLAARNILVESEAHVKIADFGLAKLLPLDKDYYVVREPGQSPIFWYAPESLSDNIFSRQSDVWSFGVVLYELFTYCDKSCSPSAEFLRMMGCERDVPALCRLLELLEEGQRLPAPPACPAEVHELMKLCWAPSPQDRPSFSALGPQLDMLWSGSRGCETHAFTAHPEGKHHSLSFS

Consider `C[C@@H]1C[C@H](Nc2c(-c3ncco3)cnc3[nH]ccc23)CN(C(=O)CC#N)C1` (single isomer, unassigned) [Example 9], for which the IC50 is 100 to 1000 nM on JAK1; 100 to 1000 nM on JAK2; 10 to 100 nM at JAK3 (a.a. 781-1124); 100 to 1000 nM at Tyk-2; more than 1000 nM in experiment [1].

For the molecule `N#CCC(=O)N1CCC[C@@H](Nc2c(-c3nncs3)cnc3[nH]ccc23)C1` [Example 8, (R)-3-(3-((5-(1,3,4-thiadiazol-2-yl)-1H-pyrrolo[2,3-b]pyridin-4-yl)amino)piperidin-1-yl)-3-oxopropanenitrile], the IC50 at JAK1 is not above 10 nM.

On to `Cn1ccnc1-c1cnc2[nH]ccc2c1N[C@@H]1CCCN(C(=O)CC#N)C1` [Example 17, (R)-3-(3-((5-(1-methyl-1H-imidazol-2-yl)-1H-pyrrolo[2,3-b]pyridin-4-yl)amino)piperidin-1-yl)-3-oxopropanenitrile], for which the IC50 (at JAK1; at JAK2; at JAK3 (a.a. 781-1124); at Tyk-2; in experiment [1]) was more than 1000 nM in each case.

As to `N#CCC(=O)N1CCC[C@@H](Nc2c(-c3ccncn3)cnc3[nH]ccc23)C1` [Example 24, (R)-3-oxo-3-(3-((5-(pyrimidin-4-yl)-1H-pyrrolo[2,3-b]pyridin-4-yl)amino)piperidin-1-yl)propanenitrile], the IC50 on JAK1, on JAK3 (a.a. 781-1124) and at Tyk-2 was not above 10 nM in each case.

In the case of `CNC(=O)c1coc(-c2cnc3[nH]ccc3c2N[C@H]2C[C@@H](C)CN(C(=O)CC#N)C2)n1` [Example 32, 2-(4-(((3S,5R)-1-(2-cyanoacetyl)-5-methylpiperidin-3-yl)amino)-1H-pyrrolo[2,3-b]pyridin-5-yl)-N-methyloxazole-4-carboxamide], the IC50 was 100 to 1000 nM on JAK1; 100 to 1000 nM on JAK2; 10 to 100 nM on JAK3 (a.a. 781-1124); 100 to 1000 nM on Tyk-2; more than 1000 nM in experiment [1].

As for `CN(C(=O)CC#N)C1CCN(c2nccc(-c3cnc4[nH]ccc4c3N[C@@H]3CCCN(C(=O)CC#N)C3)n2)C1` (stereo partly drawn) [Example 50, 2-cyano-N-(1-(4-(4-(((R)-1-(2-cyanoacetyl)piperidin-3-yl)amino)-1H-pyrrolo[2,3-b]pyridin-5-yl)pyrimidin-2-yl)pyrrolidin-3-yl)-N-methylacetamide], the IC50 on JAK1 was not above 10 nM; on JAK2, 10 to 100 nM; on JAK3 (a.a. 781-1124) it was not above 10 nM; at Tyk-2, 10 to 100 nM; in experiment [1], more than 1000 nM.

Turning to `CN(C)S(=O)(=O)Nc1ccnc(-c2cnc3[nH]ccc3c2N[C@@H]2CCCN(C(=O)CC#N)C2)c1` [Example 54, (R)-N-(2-(4-((1-(2-cyanoacetyl)piperidin-3-yl)amino)-1H-pyrrolo[2,3-b]pyridin-5-yl)pyridin-4-yl)N,N-dimethyl sulfuric diamide], the IC50 on JAK1 is 10 to 100 nM; at JAK2, 10 to 100 nM; at JAK3 (a.a. 781-1124), 100 to 1000 nM; at Tyk-2, 100 to 1000 nM; in experiment [1] it was more than 1000 nM.

Regarding `CS(=O)(=O)Nc1ccnc(-c2cnc3[nH]ccc3c2N[C@@H]2CCCN(C(=O)CC#N)C2)c1` [Example 56, (R)-N-(2-(4-((1-(2-cyanoacetyl)piperidin-3-yl)amino)-1H-pyrrolo[2,3-b]pyridin-5-yl)pyridin-4-yl)methanesulfonamide], the IC50 on JAK1 is 10 to 100 nM; at JAK2, 100 to 1000 nM; on JAK3 (a.a. 781-1124), 100 to 1000 nM; at Tyk-2, 100 to 1000 nM; in experiment [1], more than 1000 nM.

In the case of `C[C@@H]1C[C@H](Nc2c(-c3ccncn3)cnc3[nH]ccc23)CN(C(=O)CC#N)C1` [Example 57, 3-((3R,5S)-3-methyl-5-((5-(pyrimidin-4-yl)-1H-pyrrolo[2,3-b]pyridin-4-yl)amino)piperidin-1-yl)-3-oxopropanenitrile], the IC50 on JAK1 was 100 to 1000 nM; at JAK2, 100 to 1000 nM; on JAK3 (a.a. 781-1124), 10 to 100 nM; on Tyk-2 it was 100 to 1000 nM; in experiment [1] it was more than 1000 nM.

Take `Cc1ccnc(-c2cnc3[nH]ccc3c2N[C@@H]2CCCN(C(=O)CC#N)C2)n1` [Example 60]: the IC50 was not above 10 nM on JAK1 and 10 to 100 nM on Tyk-2.
